This note sets out measurements from patent US20150176022A1, “HERBICIDE-RESISTANT SUNFLOWER PLANTS, POLYNUCLEOTIDES ENCODING HERBICIDE=RESISTANT ACETO HYDROXY ACID SYNTHASE LARGE SUBUNIT PROTEINS, AND METHODS OF USE” (priority 2013, published 2015).

Assay [1] has as its system S4897 plants. As to the kind of experiment: Field trials in Argentina, resistance to imazapic (Example 4). The assay is classed as in vivo, Helianthus annuus. As to conditions: S4897 versus IMISUN-1 (Ala190-to-Val), single row plots, no data presented. How it is done: In field trials in Argentina, S4897 plants were tested for resistance to imazapic. […] This trial had single row plots and was treated on a windy day, so the actual herbicide dose reaching the plants was likely less than was applied.

The test system of assay [2] is AHAS. As to the kind of experiment: AHAS activity analysis, inhibition by herbicide (Example 5). The assay is classed as biochemical, Helianthus annuus. To be noted: AHAS of S4897 versus a Clearfield sunflower and a conventional non Clearfield variety; higher concentration of imazamox (FIG. 7). How it is done: AHAS activity analysis was also conducted by selecting actively growing young leaves from plants that were not sprayed with herbicide at approximately four weeks after planting.

Assay [3] has as its system S4897 sunflower plants. As to the kind of experiment: Greenhouse spray treatment with imazamox (FIG. 3, 4). The class given is in vivo, Helianthus annuus. To be noted: S4897 versus IMISUN-1 and wild-type; imazamox 100 or 200 g ai/ha; evaluated 17 days after application. The method, then:
(§1) The S4897 and IMISUN-1 sunflower plants were spray-treated with imazamox at rate of 200 g ai/ha. […] The photograph was taken a few days after the plants were spray treated.
(§2) FIG. 4 is graphical illustration of herbicide injury in a greenhouse test following the spray treatment of IMISUN-1, wild-type, and S4897 sunflower plants with imazamox at either 100 (light columns) or 200 g ai/ha (dark columns). […] Herbicide injury was evaluated 17 days after the imazamox application.

Assay [4] has as its system wild-type sunflower plants. The assay is described as above. As to conditions: wild-type control plants, imazamox at either 100 or 200 g ai/ha. The assay is classed as in vivo, Helianthus annuus. How it is done:
as §1, §2

The test system of assay [5] is Clearfield-Sunflower variety C. As to the kind of experiment: Greenhouse spray test, injury rating (Example 5). The class given is in vivo, Helianthus annuus. To be noted: 14 DAT, scale 0=no injury to 9=dead plant. The source says:
(§3) Sunflower lines S4897, Clearfield® sunflower varieties A, B, C and a conventional non-Clearfield variety were sprayed with three rates of imazamox (Raptor™), 100, 200 and 300 gm ai/ha plus 0.5% Sun It II and two rates of imazapyr (Arsenal™) 160 and 360 gm ai/ha plus 0.5% Sun It II when the plants were at the two to three leaf stage. Ratings were taken at 14 days after application (DAT) for injury. Injury was rated on a scale from 0 to 9 where 0=no injury to 9=dead plant. Twelve plants were sprayed per herbicide/rate treatment. Statistical analysis was conducted with STATGRAPHICS Plus 5.0 by using ANOVA and LSD procedures.
(§4) After plants were sprayed, it was realized that a height difference between S4897 and other sunflower varieties would have impacted the actual herbicide dose that was delivered. The spray boom height had been calibrated against S4897 and since the other varieties were taller and closer to the boom they would have received a greater dose of herbicide. Rates were recalibrated for the other varieties to determine the approximate dose they would have received. Assessments were made as presented in Table 2 since it was not possible to make a direct rate comparison due to the effect of the height. For example injury scores were compare for S4897 treated imazamox rate 100 gm ai/ha to the other varieties treated at 75 gm ai/ha. The treatment dose of 300 gm ai/ha for line S4897 was equivalent to the treatment of 200 gm ai/ha for the other varieties, which […].

The test system of assay [6] is Clearfield-Sunflower variety A. As to the kind of experiment: Greenhouse spray test, injury rating (Example 5). The assay is classed as in vivo, Helianthus annuus. To be noted: 14 DAT, scale 0=no injury to 9=dead plant.
From the text: as §3, §4

The subject of assay [7] is Sunflower line S4897. As to the kind of experiment: Greenhouse spray test, injury rating (Example 5). The assay is classed as in vivo, Helianthus annuus. To be noted: 14 DAT, scale 0=no injury to 9=dead plant.
From the text: as §3, §4

Assay [8] has as its system Conventional non-Clearfield sunflower variety. Description: Greenhouse spray test, injury rating (Example 5). The class given is in vivo, Helianthus annuus. As to conditions: 14 DAT, scale 0=no injury to 9=dead plant.
From the text: as §3, §4

The test system of assay [9] is Clearfield-Sunflower variety B. Description: Greenhouse spray test, injury rating (Example 5). The assay is classed as in vivo, Helianthus annuus. To be noted: 14 DAT, scale 0=no injury to 9=dead plant.
From the text: as §3, §4

Where [10] appears, read: Imazamox 300 gm ai/ha (dose received).

For `Cc1cnc(C2=NC(=O)C(C)(C(C)C)N2)c(C(=O)O)c1` (stereo not shown) [imazapic], the “resistance (tolerance) to imazapic” value in assay [1] is recorded as “clearly superior to the IMISUN-1”.

With `COCc1cnc(C2=NC(C)(C(C)C)C(=O)N2)c(C(=O)O)c1` (stereo not shown) [imazamox], the “inhibition of AHAS activity” value in assay [2] is “less inhibition at the higher concentration of imazamox as compared to a Clearfield® sunflower and conventional non Clearfield variety”. Further, the “herbicide injury (resistance or tolerance)” value in assay [3] is given as “significantly greater resistance or tolerance”. The “survival following spray treatment” value in assay [4] is on record as “did not survive”. In addition, the Injury in [5] (Imazamox 75 gm ai/ha) was 1.8 b; in assay [5] (Imazamox 150 gm ai/ha) it was 2.9 b; in assay [5] (setting [10]) it was 4.6 b; in assay [6] (Imazamox 75 gm ai/ha), 4.3 c; in [6] (Imazamox 150 gm ai/ha), “significantly injured and had stopped growing”; in assay [6] (Imazamox 150 gm ai/ha, listed as Imazamox) it was 4.6 c. The Injury in [6] (setting [10]) was 6.5 days; in assay [7] (Imazamox 100 gm ai/ha), 0.5 a; in [7] (Imazamox 200 gm ai/ha) it was “little to no injury”; in assay [7] (Imazamox 200 gm ai/ha, listed as Imazamox), 0.8 a; in [7] (Imazamox 300 gm ai/ha) it was “very little injury”; in assay [7] (Imazamox 300 gm ai/ha, listed as Imazamox) it was 0.8 a. In addition, the Injury in [8] (Imazamox 75 gm ai/ha) turned out to be 7.2 days; in [8] (Imazamox 150 gm ai/ha), 8.2 days; in assay [8] (setting [10]) it was 8.7 e; in [9] (Imazamox 75 gm ai/ha) it was 1.9 b; in assay [9] (Imazamox 150 gm ai/ha), 4.8 c; in assay [9] (setting [10]), 5.3 c.
